In patent US10278974B2 (Pfizer Inc., priority 2010, dated 2019):

Experiments:
Type in all cases: physicochemical
[1] = Physical stability on storage, followed by PXRD; conditions: two weeks of storage at 70° C. with 75% relative humidity
Experimental: A PXRD pattern for maleate polymorph Form B was measured at: 1) an initial time point and 2): two weeks after storage at 70° C. with 75% relative humidity (RH).
A PXRD pattern for S-camsylate polymorph Form A was measured at: 1) an initial time point and 2): two weeks after storage at 70° C. with 75% relative humidity (RH).

[2] = Susceptibility of salt forms to hydration; conditions: compared to other salt forms of Compound 1; solid dosage form suitability
[3] = Hygroscopicity by dynamic vapor sorption (DVS); conditions: 30° C., 0 to 90% RH in 15% RH intervals
Experimental: Solid (20-25 mg) was exposed to a controlled relative humidity (% RH) and temperature environment (30° C.), and the weight change was recorded over time. The humidity was stepped from 0 to 90% RH in 15% RH intervals.

Row | SMILES | change of PXRD pattern after storage (physical stability) [1] | susceptibility to hydration [2] | hygroscopicity indicated by dynamic vapor sorption isotherm [3]
1 | CC1(C)[C@@H]2CC[C@@]1(CS(=O)(=O)O)C(=O)C2.CNCc1ccc(-c2[nH]c3cc(F)cc4c3c2CCNC4=O)cc1 [S-camsylate polymorph Form A] | did not change significantly | not susceptible to hydration | non-hygroscopic
2 | CNCc1ccc(-c2[nH]c3cc(F)cc4c3c2CCNC4=O)cc1.O=C(O)C=CC(=O)O [maleate polymorph Form B] | did not change significantly | not susceptible to hydration | non-hygroscopic
